According to PubChem BioAssay (NCI):
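All cell lines were grown in 96-well plates and treated with compound for 48 hours. The concentration for 50% growth inhibition is given as GI50. TGI: total growth inhibition.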

Tests used:
Assay in all cases: inhibition of tumour cell growth, NCI panel, 48 h
[1] = tested on: 786-0 renal
[2] = tested on: A498 renal
[3] = tested on: A549 NSCLC
[4] = tested on: ACHN renal
[5] = tested on: BT-549 breast
[6] = tested on: CAKI-1 renal
[7] = tested on: CCRF-CEM leukemia
[8] = tested on: COLO 205 colon
[9] = tested on: DU-145 prostate
[10] = tested on: HCC-2998 colon
[11] = tested on: HCT-116 colon
[12] = tested on: HCT-15 colon
[13] = tested on: HL-60(TB) leukemia
[14] = tested on: HOP-62 NSCLC
[15] = tested on: HOP-92 NSCLC
[16] = tested on: HS 578T breast
[17] = tested on: HT29 colon
[18] = tested on: IGROV1 ovarian
[19] = tested on: K-562 leukemia
[20] = tested on: KM12 colon
[21] = tested on: LOX IMVI melanoma
[22] = tested on: M14 melanoma
[23] = tested on: MALME-3M melanoma
[24] = tested on: MCF7 breast
[25] = tested on: MDA-MB-231 breast
[26] = tested on: MDA-MB-435
[27] = tested on: MOLT-4 leukemia
[28] = tested on: NCI-H226 lung
[29] = tested on: NCI-H23 lung
[30] = tested on: NCI-H460 lung
[31] = tested on: NCI-H522 lung
[32] = tested on: NCI/ADR-RES ovarian
[33] = tested on: OVCAR-3 ovarian
[34] = tested on: OVCAR-4 ovarian
[35] = tested on: OVCAR-5 ovarian
[36] = tested on: OVCAR-8 ovarian
[37] = tested on: PC-3 prostate
[38] = tested on: RPMI-8226 leukemia
[39] = tested on: RXF 393 renal
[40] = tested on: SF-268 CNS
[41] = tested on: SF-295 CNS
[42] = tested on: SF-539 CNS
[43] = tested on: SK-MEL-2 melanoma
[44] = tested on: SK-MEL-28 melanoma
[45] = tested on: SK-MEL-5 melanoma
[46] = tested on: SK-OV-3 ovarian
[47] = tested on: SN12C renal
[48] = tested on: SNB-19 CNS
[49] = tested on: SNB-75 CNS
[50] = tested on: SW-620 colon
[51] = tested on: T-47D breast
[52] = tested on: TK-10 renal
[53] = tested on: U251 CNS
[54] = tested on: UACC-257 melanoma
[55] = tested on: UACC-62 melanoma
[56] = tested on: UO-31 renal
[57] = tested on: EKVX NSCLC

O=C1NC(=NCc2c(Cl)cccc2Cl)S/C1=C\c1ccc2ncccc2c1
GI50 [1]: 9.79 µM
TGI [1]: > 25 µM
GI50 [2]: 4.47 µM
TGI [2]: > 25 µM
GI50 [3]: 10.2 µM
TGI [3]: > 25 µM
GI50 [4]: 8.11 µM
TGI [4]: > 25 µM
GI50 [5]: 6.24 µM
TGI [5]: > 25 µM
GI50 [6]: 11 µM
TGI [6]: > 25 µM
GI50 [7]: 9.19 µM
TGI [7]: > 25 µM
GI50 [8]: 14.7 µM
TGI [8]: > 25 µM
GI50 [9]: 6.3 µM
TGI [9]: > 25 µM
GI50 [10]: > 25 µM
TGI [10]: > 25 µM
GI50 [11]: 6.15 µM
TGI [11]: > 25 µM
GI50 [12]: 4.85 µM
TGI [12]: > 25 µM
GI50 [13]: 5.35 µM
TGI [13]: > 25 µM
GI50 [14]: 7.03 µM
TGI [14]: > 19.9 µM
GI50 [15]: 4.25 µM
TGI [15]: 20.2 µM
GI50 [16]: 8.78 µM
TGI [16]: > 21.1 µM
GI50 [17]: 24.9 µM
TGI [17]: > 25 µM
GI50 [18]: 13.1 µM
TGI [18]: > 25 µM
GI50 [19]: 8.91 µM
TGI [19]: > 25 µM
GI50 [20]: 16 µM
TGI [20]: > 25 µM
GI50 [21]: 13.7 µM
TGI [21]: > 25 µM
GI50 [22]: > 23.3 µM
TGI [22]: > 25 µM
GI50 [23]: 10.6 µM
TGI [23]: > 25 µM
GI50 [24]: 16.1 µM
TGI [24]: > 25 µM
GI50 [25]: 16.3 µM
TGI [25]: > 25 µM
GI50 [26]: 9.24 µM
TGI [26]: > 25 µM
GI50 [27]: 12.9 µM
TGI [27]: > 25 µM
GI50 [28]: 6.61 µM
TGI [28]: > 25 µM
GI50 [29]: 11.6 µM
TGI [29]: > 25 µM
GI50 [30]: 8.31 µM
TGI [30]: > 25 µM
GI50 [31]: 3.99 µM
TGI [31]: 8.77 µM
GI50 [32]: 12 µM
TGI [32]: > 25 µM
GI50 [33]: 8.22 µM
TGI [33]: > 25 µM
GI50 [34]: 6.53 µM
TGI [34]: > 24 µM
GI50 [35]: > 19.5 µM
TGI [35]: > 25 µM
GI50 [36]: 10.6 µM
TGI [36]: > 25 µM
GI50 [37]: 13.4 µM
TGI [37]: > 25 µM
GI50 [38]: 9.29 µM
TGI [38]: > 25 µM
GI50 [39]: 6.05 µM
TGI [39]: > 24.2 µM
GI50 [40]: 6.71 µM
TGI [40]: > 25 µM
GI50 [41]: > 12.1 µM
TGI [41]: > 25 µM
GI50 [42]: 3.59 µM
TGI [42]: 10.7 µM
GI50 [43]: 9.12 µM
TGI [43]: 24.5 µM
GI50 [44]: > 22.9 µM
TGI [44]: > 25 µM
GI50 [45]: 13.9 µM
TGI [45]: > 25 µM
GI50 [46]: 7.53 µM
TGI [46]: > 25 µM
GI50 [47]: 14.1 µM
TGI [47]: > 25 µM
GI50 [48]: 11.3 µM
TGI [48]: > 25 µM
GI50 [49]: 1.14 µM
TGI [49]: > 25 µM
GI50 [50]: 10.6 µM
TGI [50]: > 25 µM
GI50 [51]: 9.64 µM
TGI [51]: > 25 µM
GI50 [52]: 3.14 µM
TGI [52]: > 22.9 µM
GI50 [53]: 8.17 µM
TGI [53]: > 25 µM
GI50 [54]: > 13.7 µM
TGI [54]: > 25 µM
GI50 [55]: 15.9 µM
TGI [55]: > 25 µM
GI50 [56]: 4.72 µM
TGI [56]: 21.1 µM

CC(=O)/C(=C\c1c(-c2ccccc2)[nH]c2ccccc12)S(C)(=O)=O
GI50 [1]: 3.44 µM
TGI [1]: > 35.8 µM
GI50 [2]: 3.88 µM
TGI [2]: > 54.8 µM
GI50 [3]: 7.14 µM
TGI [3]: > 100 µM
GI50 [4]: 5.64 µM
TGI [4]: > 100 µM
GI50 [5]: 2.77 µM
TGI [5]: > 100 µM
GI50 [6]: 5.62 µM
TGI [6]: > 100 µM
GI50 [7]: 4.74 µM
TGI [7]: > 100 µM
GI50 [8]: 2.7 µM
TGI [8]: 13.5 µM
GI50 [9]: 3.47 µM
TGI [9]: 15.5 µM
GI50 [57]: 6.34 µM
TGI [57]: > 100 µM
GI50 [10]: 6.61 µM
TGI [10]: 33.9 µM
GI50 [11]: 2.86 µM
TGI [11]: > 100 µM
GI50 [12]: 1.93 µM
TGI [12]: > 100 µM
GI50 [13]: 3.51 µM
TGI [13]: 20.9 µM
GI50 [14]: 7.95 µM
TGI [14]: > 43.5 µM
GI50 [15]: 3.11 µM
TGI [15]: > 75 µM
GI50 [16]: 1.55 µM
TGI [16]: 4.88 µM
GI50 [17]: 1.6 µM
TGI [17]: > 40.1 µM
GI50 [18]: 6.88 µM
TGI [18]: > 54.9 µM
GI50 [19]: 0.671 µM
TGI [19]: > 100 µM
GI50 [20]: 2.42 µM
TGI [20]: 19.2 µM
GI50 [21]: 3.36 µM
TGI [21]: > 66.3 µM
GI50 [22]: 1.64 µM
TGI [22]: 5.58 µM
GI50 [23]: 4.72 µM
TGI [23]: > 100 µM
GI50 [24]: 2.66 µM
TGI [24]: > 100 µM
GI50 [25]: 4.82 µM
TGI [25]: > 73.9 µM
GI50 [26]: 0.313 µM
TGI [26]: 1.97 µM
GI50 [27]: 4.24 µM
TGI [27]: > 100 µM
GI50 [28]: 13 µM
TGI [28]: > 100 µM
GI50 [29]: 4 µM
TGI [29]: > 100 µM
GI50 [30]: 2.78 µM
TGI [30]: 10.7 µM
GI50 [31]: 3.27 µM
TGI [31]: > 25.7 µM
GI50 [32]: 1.8 µM
TGI [32]: 8.97 µM
GI50 [33]: 2.33 µM
TGI [33]: 5.35 µM
GI50 [34]: 3.71 µM
TGI [34]: > 100 µM
GI50 [35]: 13.9 µM
TGI [35]: > 100 µM
GI50 [36]: 5.09 µM
TGI [36]: > 100 µM
GI50 [37]: 4.46 µM
TGI [37]: > 100 µM
GI50 [38]: 2.95 µM
TGI [38]: 21.9 µM
GI50 [39]: 2.56 µM
TGI [39]: 8.54 µM
GI50 [40]: 4.14 µM
TGI [40]: > 93.9 µM
GI50 [41]: 3.85 µM
TGI [41]: > 61.4 µM
GI50 [42]: 1.89 µM
TGI [42]: 4.66 µM
GI50 [43]: 5.19 µM
TGI [43]: > 24.2 µM
GI50 [44]: 3.34 µM
TGI [44]: > 100 µM
GI50 [45]: 1.87 µM
TGI [45]: > 43 µM
GI50 [46]: 3.96 µM
TGI [46]: > 32.5 µM
GI50 [47]: 6.06 µM
TGI [47]: > 100 µM
GI50 [48]: 3.3 µM
TGI [48]: > 58.7 µM
GI50 [49]: 1.45 µM
TGI [49]: 5.2 µM
GI50 [50]: 2.08 µM
TGI [50]: > 100 µM
GI50 [51]: 2.58 µM
TGI [51]: 26 µM
GI50 [52]: 8.21 µM
TGI [52]: > 100 µM
GI50 [53]: 2.79 µM
TGI [53]: > 63 µM
GI50 [54]: 24.1 µM
TGI [54]: > 100 µM
GI50 [55]: 3.17 µM
TGI [55]: > 100 µM
GI50 [56]: 5.3 µM
TGI [56]: > 100 µM

N#CC(NCCc1ccccc1)c1ccc(C(C#N)NCCc2ccccc2)cc1 (stereo not given)
TGI [1]: > 100 µM
TGI [2]: > 100 µM
TGI [3]: > 100 µM
TGI [4]: > 100 µM
TGI [5]: 56.1 µM
TGI [6]: > 100 µM
TGI [7]: 65.7 µM
TGI [8]: > 100 µM
TGI [9]: > 100 µM
TGI [57]: > 100 µM
TGI [10]: > 100 µM
TGI [11]: > 100 µM
TGI [12]: > 100 µM
TGI [13]: 40.8 µM
TGI [15]: > 100 µM
TGI [16]: > 100 µM
TGI [17]: > 100 µM
TGI [18]: > 100 µM
TGI [19]: 70.6 µM
TGI [20]: > 100 µM
TGI [21]: > 100 µM
TGI [22]: > 100 µM
TGI [23]: > 100 µM
TGI [24]: > 100 µM
TGI [25]: > 100 µM
TGI [26]: > 100 µM
TGI [27]: > 100 µM
TGI [28]: > 100 µM
TGI [29]: > 100 µM
TGI [30]: > 100 µM
TGI [31]: > 100 µM
TGI [32]: 57.5 µM
TGI [33]: > 100 µM
TGI [34]: > 100 µM
TGI [35]: > 100 µM
TGI [36]: > 100 µM
TGI [37]: > 100 µM
TGI [39]: > 100 µM
TGI [40]: > 100 µM
TGI [41]: > 100 µM
TGI [42]: > 100 µM
TGI [43]: > 100 µM
TGI [44]: > 100 µM
TGI [45]: > 100 µM
TGI [46]: > 100 µM
TGI [47]: > 100 µM
TGI [48]: > 100 µM
TGI [50]: > 100 µM
TGI [51]: > 100 µM
TGI [52]: > 100 µM
TGI [53]: > 100 µM
TGI [54]: > 100 µM
TGI [55]: > 100 µM
TGI [56]: > 100 µM
